Legend:
HCT-116 cell line = experiment: Inhibition of cell growth, MTT tetrazolium salt assay; format: cell-based; settings: for IC50: Homo sapiens, HCT-116, 120 h, MTT, three to five days
In short: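 HCT-116 cells in McCoy's 5A were dosed 4 h after plating with compounds in 0.5% DMSO and grown 3–5 days at 37 °C. Then 0.2 mg/mL MTT was added for 4 h and formazan absorbance read at 540 nm. IC50/IC90 came from semi-log plots against DMSO-only controls.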

CDK2/cyclin A = target: T1, CDK2/cyclin A (Homo sapiens, UniProt P24941); experiment: Inhibition of CDK2/cyclin A retinoblastoma kinase activity (Ki; % inhibition); format: biochemical; settings: for Ki: apparent Ki, CDK2/cyclin A, Rb substrate
T1 construct: made in house; host or cells: CDK2: insect cells (baculovirus); cyclin A: E. coli
In short: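 Apparent Ki values came from fitting concentration-dependent activity data to competitive (or competitive tight-binding) models, and % inhibition from single 30 nM screens of library compounds. Activity was measured as ³²P/³³P incorporation from 25 μM ATP into an Rb substrate by 10 or 19 nM CDK2/delta cyclin A at 30 °C over 60–75 min, pH 7.4.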

human CDK4/cyclin D3 = target: T2, human CDK4/cyclin D3 (Homo sapiens, UniProt P11802); experiment: Inhibition of CDK4/cyclin D retinoblastoma kinase activity (Ki; % inhibition); format: biochemical; settings: for Ki: apparent Ki, CDK4/cyclin D3, Rb substrate
T2 construct: made in house; host or cells: insect cells co-infected with baculovirus vectors
In short: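 Radiometric filter-binding read-out: Rb residues 386-928 phosphorylated by 5 nM CDK4/cyclin D3(1-264) from baculovirus-infected insect cells, 25 μM ATP, HEPES pH 7.4, 30 °C. Run 20 min, or 60 min for tight-binding inhibitors. Screening at 30 nM theoretical compound; apparent Ki by competitive-inhibition fitting.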

[1] = HCT-116 cells, 0.25 μM compound

T2 sequence (P11802 whole entry): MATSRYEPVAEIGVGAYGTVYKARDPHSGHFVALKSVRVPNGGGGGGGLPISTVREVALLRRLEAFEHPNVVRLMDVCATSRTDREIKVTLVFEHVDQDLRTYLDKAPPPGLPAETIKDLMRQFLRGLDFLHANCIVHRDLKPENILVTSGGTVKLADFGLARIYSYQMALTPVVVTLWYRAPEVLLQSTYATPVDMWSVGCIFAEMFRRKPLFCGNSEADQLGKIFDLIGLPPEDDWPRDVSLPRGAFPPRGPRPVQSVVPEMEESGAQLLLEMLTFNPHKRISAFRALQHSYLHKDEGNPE
T2 sequence (P30281 1-264 partner limits assumed): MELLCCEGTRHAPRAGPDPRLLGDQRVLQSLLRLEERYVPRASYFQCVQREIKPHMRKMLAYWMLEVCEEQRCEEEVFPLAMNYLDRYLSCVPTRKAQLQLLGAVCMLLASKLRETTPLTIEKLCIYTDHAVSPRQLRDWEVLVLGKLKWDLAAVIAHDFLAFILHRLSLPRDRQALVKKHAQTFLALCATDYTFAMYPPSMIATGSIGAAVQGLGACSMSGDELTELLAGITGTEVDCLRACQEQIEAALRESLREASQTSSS

SMILES	HCT-116 % Inhibition at 0.1 μM (HCT-116 cell line; HCT-116 cells, 0.1 μM compound) [%]	HCT-116 % Inhibition at 0.25 μM (HCT-116 cell line; [1]) [%]	CDK2 % Inhibition at 0.03 μM (CDK2/cyclin A; 0.03 μM compound) [%]	CDK4 % Inhibition at 0.03 μM (human CDK4/cyclin D3; 0.03 μM compound) [%]	HCT-116 % Inhibition at 0.25 μM (HCT-116 cell line; HCT-116, at 0.25 μM) [%]	CDK2 % Inhibition at 0.03 μM (CDK2/cyclin A; at 0.03 μM) [%]	CDK4 % Inhibition at 0.03 μM (human CDK4/cyclin D3; at 0.03 μM) [%]	further results
Nc1nc(Nc2ccc(C(=O)NCCSCCO)cc2)sc1C(=O)c1c(F)cccc1F [Example G366]	26	55	1	8				
Nc1nc(Nc2ccc(C(=O)NCc3ccc(Cl)c(Cl)c3)cc2)sc1C(=O)c1c(F)cccc1F [Example G336]	12	51	36	36				
CC(=O)N(C)C1CCN(C(=O)c2ccc(Nc3nc(N)c(C(=O)c4c(F)cccc4F)s3)cc2)C1 (stereo not drawn) [Example G348]	23	51	−21	14				
CC[C@H](NC(=O)c1ccc(Nc2nc(N)c(C(=O)c3c(F)cccc3F)s2)cc1)c1ccccc1 [Example G214]	15	52	11	16				
CCC(C)NC(=O)c1ccc(Nc2nc(N)c(C(=O)c3c(F)cccc3F)s2)cc1 (stereo not drawn) [Example G148]					48	5	14	HCT-116 % Inhibition at 0.1 μM (HCT-116 cell line; HCT-116, at 0.1 μM): 0%
NC(=O)C1CCN(C(=O)c2ccc(Nc3nc(N)c(C(=O)c4c(F)cccc4F)s3)cc2)CC1 [Example G43]					62	5	12	
CC1(C)CCCC(C)(C)N1CCNC(=O)c1ccc(Nc2nc(N)c(C(=O)c3c(F)cccc3F)s2)cc1 [Example A53, 4-[4-Amino-5-(2,6-difluoro-benzoyl)-thiazol-2-ylamino]-N-[2-(2,2,6,6-tetramethyl-piperidin-1-yl)-ethyl]-benzamide]								IC50 (HCT-116 cell line): 150 nM; Ki (CDK2/cyclin A): 120 nM; Ki (human CDK4/cyclin D3): 4 nM
CN1C[C@H](O)C[C@H]1CNC(=O)c1ccc(Nc2nc(N)c(C(=O)c3c(F)cccc3F)s2)cc1 [Example A54, 4-{4-Amino-5-(2,6-difluoro-benzoyl)-thiazol-2-ylamino]-N-(4R-hydroxy-1-methyl-pyrrolidin-2S-yl-methyl)-benzamide]								IC50 (HCT-116 cell line): 600 nM; Ki (CDK2/cyclin A): 52 nM; Ki (human CDK4/cyclin D3): 9 nM
Nc1nc(Nc2ccc(C(=O)N3CCN(CCc4cccs4)CC3)cc2)sc1C(=O)c1c(F)cccc1F [Example G395]	19	48	17	15				
CSc1ccccc1NC(=O)c1ccc(Nc2nc(N)c(C(=O)c3c(F)cccc3F)s2)cc1 [Example G31]					75	4	4	
CCN(CC)CCCC(C)NC(=O)c1ccc(Nc2nc(N)c(C(=O)c3c(F)cccc3F)s2)cc1 (stereo not drawn) [Example G239]	21	50	15	27				
Nc1nc(Nc2ccc(C(=O)Nc3ccc4nc[nH]c4c3)cc2)sc1C(=O)c1c(F)cccc1F [Example G100]					89	13	22	HCT-116 % Inhibition at 0.1 μM (HCT-116 cell line; HCT-116, at 0.1 μM): 27%
COc1ccc(CNC(=O)c2ccc(Nc3nc(N)c(C(=O)c4c(F)cccc4F)s3)cc2)cc1 [Example G169]					71	38	49	HCT-116 % Inhibition at 0.1 μM (HCT-116 cell line; HCT-116, at 0.1 μM): 32%
CC(=O)N1CCN(C(=O)c2ccc(Nc3nc(N)c(C(=O)c4c(F)cccc4F)s3)cc2)CC1 [Example G65]					58	12	17	

Source: patent publication US6720346B2, “Thiazole benzamide derivatives and pharmaceutical compositions for inhibiting cell proliferation” (Agouron Pharmaceuticals, Inc., priority 2001, dated 2004)
